The record followed here is patent US10653693B2, “PRMT5 inhibitors and uses thereof” (Epizyme, Inc., priority 2014, dated 2020).

Read-outs that look alike come from different tables or passages of the source.

Experiment [1] concerns heme cancer cell lines (MCL, AML, MM, lymphoma). Kind of experiment: Cell Titer-Glo growth/death assay. In kind it is cell-based. Particulars: several heme cancer cell lines incl. MCL, MM and lymphoma. The procedure:
Heme cancer cells were treated with a PRMT5 inhibitor and a Cell Titer-Glo growth/death assay was performed.
A general note: ATP-based viability assays read luminescence as a measure of living cells.

Experiment [2] concerns cellular methylation (symmetric di-methyl arginine) in Maver-1 cells. Kind of experiment: In Cell Western (ICW) methylation assay, SYM11 antibody. In kind it is cell-based. Particulars: Homo sapiens, Maver1, 96 h, 4 days of treatment, n=1. The procedure:
[Worded in the source for another cell line; this cell line is reported under the same test.] Percent inhibition was determined and IC50 curves were generated using triplicate wells per concentration of compound. IC50 values were calculated using GraphPad Prism using a 4-parametric fit of the normalized dose response curves with the top fixed to 100%. Z-138 cells were seeded in assay medium at a concentration of 50,000 cells per mL to a 384-well cell culture plate with 50 μL per well. Compound (100 nL) from 384 well source plates was added directly to 384 well cell plate. Plates were incubated at 37° C., 5% CO2 for 96 hours. After four days of incubation, 40 μL of cells from incubated plates were added to poly-d-lysine coated 384 well culture plates (BD Biosciences 356697). Plates were incubated at room temperature for 30 minutes then incubated at 37° C., 5% CO2 for 5 hours. After the incubation, 40 μL per well of 8% paraformaldehyde in PBS (16% paraformaldahyde was diluted to 8% in PBS) was added to each plate and incubated for 30 minutes. Plates were transferred to a Biotek 405 plate washer and washed 5 times with 100 μL per well of wash buffer (1×PBS with 0.1% Triton X-100 (v/v)). […] The average of the ratio values for each control type was calculated and used to determine the percent inhibition for each test well in the plate. […] Percent inhibition was determined and IC50 curves were generated using triplicate wells per concentration of compound. […]

The test system of experiment [3] is Mino. Kind of experiment: Long-term proliferation (LTP) assay. Format: cell-based. Particulars: Homo sapiens.
Experiment [4] relates to Jeko-1. Description: Long-term proliferation (LTP) assay. In kind it is cell-based. Particulars: Homo sapiens.
The subject of experiment [5] is sDMA methylation in bone marrow (surrogate tissue). Kind of experiment: sDMA Western blot of bone marrow samples from Z-138 efficacy study. Particulars: bone marrow harvested on day 21. In kind it is in vivo.
The test system of experiment [6] is Granta-519. Description: Long-term proliferation (LTP) assay. Format: cell-based. Particulars: Homo sapiens.
For experiment [7], the system named is Maver-1 xenograft model. Description: 21 day mantle cell lymphoma xenograft study: TGI and tumor methyl mark. In kind it is in vivo. Particulars: all doses tested, day 21. The procedure: Data presented in this example were determined after analysis of 21 day samples of mantle cell lymphoma tumors. Cmin PK samples were taken prior to the last dose on day 21. Tumors were excised, weighed and processed for methyl mark. Methyl mark reduction was measured in tumor samples and is shown as percent of vehicle control (POC). Both SYM11 and sDMA Elisa were used to measure methyl mark and the data shown is averaged from 10 animals. Tumor growth inhibition was determined using tumor volume reduction at day 21 expressed as a percent of POC. In vivo inhibition curves were also generated and IC50 values determined. Plasma levels from each group are averaged from 5 animals. […] The average body weight loss (BWL) in all groups was <6%. All doses tested show >50% TGI. […] The average BWL in all groups was <4%. The average BWL in all groups was <8%, except in the 100 mg/kg does group were 4 animals exceeded BWL of 15%.

Experiment [8] concerns sDMA methylation in Z-138 cells. Description: sDMA western blot, 10 kDa band to total SmD3. Particulars: Homo sapiens. Format: cell-based. The procedure:
(§1) The measurement of the 10 kDa band was used to calculate the methylation IC50 values. […] Concentration-dependent decreases in the 10 kDa band were observed on day 4 in all cell lines tested with representative western blots shown for Z-138 and Maver-1 cell lines (FIG. 1). Levels of the 10 kDa band from the western blots were quantified by densitometry and ratios of 10 kDa band (postulated to be SmD3me2s) to total SmD3 were calculated to determine the IC50s (Table 2, n=1 for all samples).

Experiment [9] deals with sDMA methylation in Mino cells. Description: sDMA western blot, 10 kDa band to total SmD3. In kind it is cell-based. Particulars: Homo sapiens. The procedure: as §1
For experiment [10], the system named is sDMA methylation in Maver-1 cells. Kind of experiment: sDMA western blot, 10 kDa band to total SmD3. Format: cell-based. Particulars: Homo sapiens. The procedure: as §1
On the technique in general: In western blotting, separated proteins are transferred to a membrane and probed.

Experiment [11] concerns sDMA methylation in Granta-519 cells. Description: sDMA western blot, 10 kDa band to total SmD3. Particulars: Homo sapiens. Format: cell-based. The procedure: as §1
The subject of experiment [12] is sDMA methylation in Jeko-1 cells. Kind of experiment: sDMA western blot, 10 kDa band to total SmD3. Format: cell-based. Particulars: Homo sapiens. The procedure: as §1
For experiment [13], the system named is Maver-1. Kind of experiment: Long-term proliferation (LTP) assay. In kind it is cell-based. Particulars: Homo sapiens.
[14] abbreviates: 264 h, 11-day treatment, N = 1, read-out: Formula B LTP IC50.
Where [15] appears, read: 264 h, 11-day treatment, N = 1, read-out: Formula B LTP IC90.
[16] abbreviates: 96 h, day 4, N = 1, read-out: sDMA Western blot IC50 10 kDa Band.
Setting [17] is: Table 3, read-out: sDMA Western IC50.

As for `O=C(NC[C@H](O)CN1CCc2ccccc2C1)c1ccnc(NC2CCC2)c1` [Formula C], the “proliferation in heme cancer cell lines” value in [1] is “inhibits proliferation”.

As to `CC(=O)N1CCC(Nc2cc(C(=O)NC[C@H](O)CN3CCc4ccccc4C3)ccn2)CC1` [Formula B], the IC50 in experiment [2] is 1.9 nM; in [3] (setting [14]), 119 nM; in experiment [3] (Table 3, read-out: LTP IC50) it was 64.6 nM; in experiment [4] (setting [14]) it was 14 nM; in experiment [4] (Table 3, read-out: LTP IC50), 5.2 nM; in experiment [6] (setting [14]), 12 nM. For the same molecule, the half-inhibitory concentration (IC50) in [6] (Table 3, read-out: LTP IC50) stood at 6 nM; in [8] (setting [16]) it was 1 nM; in experiment [8] (setting [17]), 1 nM; in experiment [9] (setting [16]), 2 nM; in experiment [9] (setting [17]), 2 nM; in [10] (Maver1, 96 h, day 4, N = 1, read-out: sDMA Western blot IC50 10 kDa Band), 0.1 nM. Moreover, the half-inhibitory concentration (IC50) is 0.1 nM in experiment [10] (Maver1, Table 3, read-out: sDMA Western IC50); 0.3 nM in experiment [11] (setting [16]); 0.3 nM in [11] (setting [17]); 9.5 nM in experiment [12] (setting [16]); 9.5 nM in experiment [12] (setting [17]); 26 nM in experiment [13] (Maver1, 264 h, 11-day treatment, N = 1, read-out: Formula B LTP IC50). In addition, the half-maximal inhibitory concentration (IC50) in experiment [13] (Maver1, Table 3, read-out: LTP IC50) was found to be 15.3 nM. In addition, the 90% effect concentration (IC90) came to 611 nM in experiment [3] (setting [15]); 149 nM in experiment [4] (setting [15]); 77 nM in experiment [6] (setting [15]); 73 nM in [13] (Maver1, 264 h, 11-day treatment, N = 1, read-out: Formula B LTP IC90). The “levels of sDMA methylation in bone marrow” value in experiment [5] was “More of a dose-dependent response”. Also, in experiment [7], the “Tumor growth inhibition (TGI)” value was over 50%.

Usually IC50 stands for the concentration that gives 50% inhibition. As usually defined, the IC90 is the concentration at which the effect reaches the 90% level.
